Experimental data reported in patent US20150038435A1, “N-TERMINALLY MODIFIED OLIGOPEPTIDES AND USES THEREOF” (Novo Nordisk A/S, priority 2012, published 2015).
Non-standard residues stand in square brackets, D forms with d. Residues, ends and D or L forms follow the SMILES beside them. *: point of attachment. Lauroyl = CCCCCCCCCCCC(=O)*

How the values were obtained:
Chymotrypsin = assay: Inhibition of enzymatic degradation of a model GLP-1 (FRET substrate) by chymotrypsin; format: biochemical; settings: for Slope of the initial increase in fluorescence obtained during incubation with 0.001 mg/ml Chymotrypsin: compound 1 mM; for EC50: read-out: EC50 Chymotrypsin (0.001 mg/ml), 0.001 mg/ml chymotrypsin, 37° C., ± standard error if at least 3 measurements
Outline: (§1)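 Initial-rate slopes of fluorescence rise (320 nm ex, 405 nm em), fitted over the linear early phase and averaged from duplicates, were plotted against inhibitor concentration and fitted logistically to give EC50. Reactions ran at 37° C in Dulbecco's PBS, with MCA/DNP GLP-1 FRET substrate added as 10 μl of 100 μM stock.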

Trypsin = assay: Inhibition of enzymatic degradation of a model GLP-1 (FRET substrate) by trypsin; format: biochemical; settings: for Slope of the initial increase in fluorescence obtained during incubation with 0.001 mg/ml Trypsin: compound 1 mM; for EC50: read-out: EC50 Trypsin (0.001 mg/ml), 0.001 mg/ml trypsin, 37° C.
Outline: as §1

[1] = Stability of N-terminally acylated peptides or oligopeptides in GI juice; format: in vitro ADME; settings: degradation of the compound itself in jejunum extract from rat, read-out: t 1/2 in rat GI juice
Description: 96 well plates were coated by incubating with 0.4% Bovine serum albumin (BSA) solution for minimum of 60 min. To each well, 210 μl of buffer (Hank's balanced salt solution-4-(2-hydroxyethyl)-1-piperazineethanesulfonic acid (HBSS-HEPES) buffer) with 0.005% Tween 20 and 0.001% BSA, pH 6.5 precipitated with 3 vol. cold 96% ethanol (EtOH) w. 1% TFA), 30 μl of a substrate (100 μM insulin analogue or GLP-1 analogue in buffer) and 30 μl of N-terminally acylated peptide or oligopeptide of the invention (10 mM) were added. The plates were pre-incubated (before adding GI juice) for 60 min at 37° C. After addition of 30 μl of GI juice (10-times diluted in buffer), the plates were incubated for 60 min/37° C. on shaker. Samples (40 μl) were taken at 0, 5, 10, 20, 30 and 60 min, stopped with 3 vol. cold 96% EtOH w. 1% TFA and spun down in plates (4500 rpm for 10 min). Samples were diluted 5 times with the buffer prior to LC-MS analysis. Standard samples (0.1, 0.5, 1.0, 5.0, 10.0 μM) were prepared and treated as the samples. Standard curve was analysed both at the beginning and the end of the sequence. Two replicates of each tested conditions were included. Ion suppression was assessed by analyzing a standard at 1 μM and at 10 μM with 1 mM inhibitor present. Intact insulin or GLP-1 analoues were determined at each sample. The results were plotted against the incubation time. Half-lives of the insulin or GLP-1 analogues were determined by nonlinear regression of the results using, for example Graph Pad Prism. The half-lives were expressed relative to the half-live of the insulin or GLP-1 analogue without inhibitor present by dividing the half-lives obtained in the presence of inhibitor with those obtained in the absence of inhibitors. GI juice was prepared from male Sprague Dawley rats (200-250 g) by excising approximately 20 cm piece of mid jejunum and rinsing the inside with 2.5 ml 0.9% sodium chloride solution. The sodium chloride solution was collected in a centrifuge tube, pooled from all rats (20) and centrifuged at 4500 rpm./10 min/4° C. The supernatant was aliquoted in tubes and stored at −80° C.
Degradation of the N-terminally fatty acid modified peptide or oligopeptide of the invention themselves in jejunum extract from rat (GI juice) and determination of half-lives, was measured as described above (example 200).

[2] = Hydrophobicity: retention time during reverse phase HPLC; format: physicochemical; settings: Acquity CSH C18; pH 7.2 buffer/CH3CN gradient; 40° C.
Description: The retention time (RT) during reverse phase HPLC was taken as a measure of hydrophobicity of an N-terminally modified peptide or oligopeptide of the invention, where the connection is: The longer the RT, the more hydrophobic N-terminally modified peptide or oligopeptide. The following running conditions were applied during HPLC analysis:
Buffer B: 70% (v/v) aq. CH3CN

CCCCCCCCCCCC(=O)N[C@H](C)C(=O)N[C@H](C)C(=O)N1CCC[C@@H]1C(=O)N[C@H](Cc1ccccc1)C(=O)O [Example 1, N-dodecanoyl-DAla-DAla-DPro-DPhe-OH] (Lauroyl-[dA][dA][dP][dF]-OH)
Slope of the initial increase in fluorescence obtained during incubation with 0.001 mg/ml Chymotrypsin (Chymotrypsin): 0.41 | EC50 (Chymotrypsin): 476 µM | Slope of the initial increase in fluorescence obtained during incubation with 0.001 mg/ml Trypsin (Trypsin): 0.39 | EC50 (Trypsin): > 500 µM | half-life at 1 mM ([1]; male, Sprague Dawley, rat GI juice (jejunum extract), pH 6.5): > 1000 min | RT (retention time during reverse phase HPLC as a measure of hydrophobicity) [2]: 6.91 min

CCCCCCCCCCCC(=O)N[C@@H](C)C(=O)N[C@@H](C)C(=O)N1CCC[C@H]1C(=O)N[C@@H](Cc1ccccc1)C(=O)O [Example 34, N-dodecanoyl-Ala-Ala-Pro-Phe-OH] (Lauroyl-AAPF-OH)
Slope of the initial increase in fluorescence obtained during incubation with 0.001 mg/ml Chymotrypsin (Chymotrypsin): 0.07 | EC50 (Chymotrypsin): 200 ± 26 µM | Slope of the initial increase in fluorescence obtained during incubation with 0.001 mg/ml Trypsin (Trypsin): 0.31 | EC50 (Trypsin): 317 µM | half-life ([1]; GI juice (jejunum extract)): 3.5 min | RT (retention time during reverse phase HPLC as a measure of hydrophobicity) [2]: 6.94 min
